Data on one compound can be found in patent US20220176011A1, “SCAR REDUCING WOUND CLOSURE MATERIALS” (Lankenau Institute for Medical Research, priority 2019, published 2022).

The subject of the experiment is HIF1a protein activity. The experiment can be described thus: In vitro drug release from suture into DMEM medium, read out by HIF1a luciferase assay. Format: cell-based. How it is done: FIG. 1 is a graph plotting drug release in vitro from poly(lactic acid)/poly(lactic-co-glycolic acid (PLA/PLGA) sutures over time. Briefly, a mixture of PLA and PLA/GPLA suture was infused with 1,4-DPCA molecules during generation of the sutures. The concentration of DPCA was in all cases 5 mg/100 mg suture material as described below. The sutures, having different ratios of PLA and PLA/PLGA as described below, were tested for rate of drug release. Drug release was measured by HIF levels. The sutures were soaked in medium without serum for 24 hours and transferred to new medium for each timepoint identified on the graph. The medium was tested for HIF1a protein activity in a luciferase assay. The horizontal lines are controls as noted: at about 10000 luminescence units (LU) is a control for DMEM only; at about 18000 LU is a control for 25 μM DCPA; at about 29500 LU is a control for 50 μM DCPA; at about 39000 LU is a control for 100 μM DCPA; and at about 40500 LU is a control for 200 μM DCPA. The curve that is substantially at 10000 LU but dips below at day 12 represents a mixture of PLA and PLA/PLGA [50:50] at a ratio of 75 PLA:25 PLA/PLGA. The curve that starts below 10000 LU and increases to about 15000 LU at day 14.5 is PLA and PLA/PLGA [50:50] at a ratio of 75:25+DPCA. The curve that starts above 50000 and has a peak at day 15 above 40000 LU is PLA and PLA/PLGA[50:50] at a ratio of 50:50+DPCA. The curve that starts above 50000 LU and has a peak at day 7.5 at about 34000 LU represents PLA and PLA/PLGA [50:50] at a ratio of 75:25+DPCA.
A PLA/PGLA suture, infused with 1,4-DPCA molecules during generation of the sutures as described in Example 1 (i.e., materials are melted, DPCA added, and the final mixture cooled and pulled into sutures), was tested for rate of release of 1,4-DPCA into DMEM medium. Drug release was measured by HIF levels. The sutures were soaked in medium without serum for 24 hours and transferred to new medium for each timepoint (1 hour, 3 hours, Days 1, 2, 3, 6, 7, 8, 9, 10, 13, 14, 15, 16, 17 and 20). The medium was tested for HIF1a protein activity in a luciferase assay (Signosis, Inc) as described in ESKLA, K-L et al, Hypothermia augments stress response in mammalian cells. Free Radical Biology and Medicine, 2018 doi:10.1016/j.freeradbiomed.2018.04.571.
The results are shown in the graph at FIG. 1. The two heavy lines represented PLA/PLGA[50:50] 50:50+DPCA and PLA/PLGA[50:50] 75:25+DPCA are shown releasing the drug after one hour in the medium up to about 15 days in the medium after which the drug detection falls under the DMEM control.

As to `O=C(O)c1c[nH]c2c(ccc3cccnc32)c1=O` [DCPA, 1,4-dihydrophenonthrolin-4-one-3-carboxylic acid], the “luminescence (HIF1a luciferase assay), control line” value is reported as “about 18000 LU” (25 μM free drug control), “about 29500 LU” (50 μM free drug control), “about 39000 LU” (100 μM free drug control) and “about 40500 LU” (200 μM free drug control).
